Results: publication PMC2997912 (Molecular pharmaceutics, 2010)

Molecular target: T1, hASBT (Homo sapiens, UniProt Q12908)
T1 sequence (Q12908 1-348): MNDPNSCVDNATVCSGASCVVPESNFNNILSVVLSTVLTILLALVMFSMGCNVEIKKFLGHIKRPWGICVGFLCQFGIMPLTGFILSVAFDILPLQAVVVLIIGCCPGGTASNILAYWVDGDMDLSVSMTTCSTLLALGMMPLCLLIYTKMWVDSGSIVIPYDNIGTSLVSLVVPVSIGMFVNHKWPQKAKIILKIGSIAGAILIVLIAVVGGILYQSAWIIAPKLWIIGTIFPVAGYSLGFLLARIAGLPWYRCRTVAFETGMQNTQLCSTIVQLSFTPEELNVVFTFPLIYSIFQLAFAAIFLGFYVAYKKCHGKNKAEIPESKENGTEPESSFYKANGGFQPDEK
Experiment: Conjugate uptake into hASBT-MDCK cells in the presence of sodium
Assay type: cell-based

C[C@H](CCC(=O)NCCS(=O)(=O)O)[C@H]1CC[C@H]2[C@@H]3[C@H](O)C[C@@H]4C[C@H](O)CC[C@]4(C)[C@H]3C[C@H](O)[C@]12C [taurocholate, Taurocholate]
Vmax: 0.699 pmol/cm^2/s
